In assay [1] the target is recombinant human FAPα (rhFAPα) (Homo sapiens (Human), UniProt Q12884). Nature of the assay: FAPα enzymatic exopeptidase (dipeptidase) activity assay, Z-Gly-Pro-AMC. Conditions: for inhibition at 1 µM: 1 μM test compound, exopeptidase, Table 3B, read-out: rhFAPα (% exo inh @ 1 μM). Format: biochemical.
For assay [2], the target named is recombinant human DPPIV (rhDPPIV) (Homo sapiens (Human), UniProt P27487). Nature of the assay: DPPIV enzymatic activity assay. Format: biochemical. The note with it: Table 3B.
The target of assay [3] is recombinant human DPP9 (rhDPP9) (Homo sapiens (Human), UniProt Q86TI2). The assay is described as follows: Inhibition of DPP9 activity, 10 ng rhDPP9, H-Gly-Pro-AMC. Type of assay: biochemical. Conditions: Table 3B.
The test system of assay [4] is human AML cell line MV4-11. Nature of the assay: Cytotoxicity assay in human leukemia cell lines (Cell-Titer Glo). Conditions: Homo sapiens, MV4-11, 48 h, read-out: MV4-11 viability IC50, μM.

Sequence of recombinant human DPPIV (rhDPPIV) (P27487 whole entry): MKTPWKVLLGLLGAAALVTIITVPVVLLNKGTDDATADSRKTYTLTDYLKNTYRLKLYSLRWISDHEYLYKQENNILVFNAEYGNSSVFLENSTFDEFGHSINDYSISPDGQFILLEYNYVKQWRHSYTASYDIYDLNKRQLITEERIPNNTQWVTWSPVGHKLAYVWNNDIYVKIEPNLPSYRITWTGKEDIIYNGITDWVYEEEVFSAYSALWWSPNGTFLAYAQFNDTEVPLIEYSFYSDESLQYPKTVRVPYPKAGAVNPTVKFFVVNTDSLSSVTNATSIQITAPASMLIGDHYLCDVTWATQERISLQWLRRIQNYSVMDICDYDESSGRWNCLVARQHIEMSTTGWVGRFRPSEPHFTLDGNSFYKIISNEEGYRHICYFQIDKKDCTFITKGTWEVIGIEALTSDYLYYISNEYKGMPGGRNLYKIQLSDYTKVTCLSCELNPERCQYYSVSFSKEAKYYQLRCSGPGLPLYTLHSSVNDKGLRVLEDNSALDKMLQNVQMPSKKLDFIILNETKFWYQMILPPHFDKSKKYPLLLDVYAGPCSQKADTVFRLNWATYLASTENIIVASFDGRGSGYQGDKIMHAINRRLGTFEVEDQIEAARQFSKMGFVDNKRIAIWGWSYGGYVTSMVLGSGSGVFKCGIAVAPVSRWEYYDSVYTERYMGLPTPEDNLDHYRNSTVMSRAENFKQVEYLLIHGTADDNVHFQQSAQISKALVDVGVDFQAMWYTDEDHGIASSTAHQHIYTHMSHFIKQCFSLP
Sequence of recombinant human FAPα (rhFAPα) (Q12884 whole entry): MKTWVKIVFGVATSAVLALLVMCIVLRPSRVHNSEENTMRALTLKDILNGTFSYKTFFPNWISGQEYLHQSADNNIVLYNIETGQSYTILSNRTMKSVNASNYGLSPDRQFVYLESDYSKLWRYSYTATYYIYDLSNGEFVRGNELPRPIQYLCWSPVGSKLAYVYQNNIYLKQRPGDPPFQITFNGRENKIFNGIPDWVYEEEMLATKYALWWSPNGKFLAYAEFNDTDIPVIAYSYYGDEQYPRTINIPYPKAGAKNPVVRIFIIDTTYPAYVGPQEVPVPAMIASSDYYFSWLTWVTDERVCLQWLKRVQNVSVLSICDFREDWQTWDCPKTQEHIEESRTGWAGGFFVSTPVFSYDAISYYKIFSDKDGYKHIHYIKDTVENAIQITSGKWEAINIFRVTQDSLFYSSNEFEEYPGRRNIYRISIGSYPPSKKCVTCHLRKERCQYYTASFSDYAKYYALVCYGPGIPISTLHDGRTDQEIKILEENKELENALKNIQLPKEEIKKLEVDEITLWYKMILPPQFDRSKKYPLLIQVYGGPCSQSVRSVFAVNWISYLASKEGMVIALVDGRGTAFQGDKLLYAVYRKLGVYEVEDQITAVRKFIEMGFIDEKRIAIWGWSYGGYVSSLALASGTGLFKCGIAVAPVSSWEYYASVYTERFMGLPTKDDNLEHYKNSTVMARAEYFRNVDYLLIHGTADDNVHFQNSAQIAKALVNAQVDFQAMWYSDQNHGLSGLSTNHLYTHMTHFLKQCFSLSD
Sequence of recombinant human DPP9 (rhDPP9) (Q86TI2 whole entry): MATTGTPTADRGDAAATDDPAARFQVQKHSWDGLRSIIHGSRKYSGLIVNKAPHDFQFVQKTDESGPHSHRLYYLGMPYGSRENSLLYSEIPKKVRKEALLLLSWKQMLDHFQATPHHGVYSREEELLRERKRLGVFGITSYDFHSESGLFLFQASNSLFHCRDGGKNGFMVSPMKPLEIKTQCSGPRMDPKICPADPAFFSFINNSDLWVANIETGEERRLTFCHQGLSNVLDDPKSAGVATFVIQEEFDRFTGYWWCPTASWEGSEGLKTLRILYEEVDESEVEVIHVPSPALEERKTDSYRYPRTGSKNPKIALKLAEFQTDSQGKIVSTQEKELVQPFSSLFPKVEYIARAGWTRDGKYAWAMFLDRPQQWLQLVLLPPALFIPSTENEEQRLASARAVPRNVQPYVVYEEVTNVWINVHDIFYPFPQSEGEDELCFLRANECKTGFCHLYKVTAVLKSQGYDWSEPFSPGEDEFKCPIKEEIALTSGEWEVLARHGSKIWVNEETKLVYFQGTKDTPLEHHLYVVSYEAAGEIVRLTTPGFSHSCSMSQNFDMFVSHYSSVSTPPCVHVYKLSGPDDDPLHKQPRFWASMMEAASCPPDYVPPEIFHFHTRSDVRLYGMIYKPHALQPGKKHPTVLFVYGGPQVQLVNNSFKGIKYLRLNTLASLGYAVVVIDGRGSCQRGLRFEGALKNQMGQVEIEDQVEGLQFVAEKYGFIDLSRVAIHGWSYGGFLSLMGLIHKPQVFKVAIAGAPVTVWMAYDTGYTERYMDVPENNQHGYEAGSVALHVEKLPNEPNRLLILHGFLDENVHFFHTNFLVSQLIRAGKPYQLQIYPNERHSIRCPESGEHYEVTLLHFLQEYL

As a reminder, the IC50 is the concentration at which inhibition is half-maximal. With `N#C[C@@H]1CC(F)(F)CN1C(=O)CNC(=O)c1ccnc2ccc(-c3ccc4c(c3)CCCN4)cc12` [Compound 113], the half-maximal inhibitory concentration (IC50) was under 1 µM in assay [1], 1 to 10 µM in assay [2] and under 1 µM in assay [3]. Besides, the inhibition at 1 µM in assay [1] was over 50%.
Regarding `Cc1ccc(-c2ccc3nccc(C(=O)NCC(=O)N4CC(F)(F)C[C@H]4C#N)c3c2)cn1` [Compound 23], the IC50 in assay [1] and in assay [3] was under 1 µM throughout. Further, the inhibition at 1 µM in assay [1] is over 50%.
Consider `N#C[C@@H]1CC(F)(F)CN1C(=O)CNC(=O)c1ccnc2ccc(-c3ccc4[nH]ncc4c3)cc12` [Compound 101], for which, in assay [1], the half-maximal inhibitory concentration (IC50) is under 1 µM and the inhibition at 1 µM was over 50%. In addition, in assay [3], the IC50 is under 1 µM.
Consider `N#C[C@@H]1CC(F)(F)CN1C(=O)CNC(=O)c1ccnc2ccc(-c3ccccc3)cc12` [Compound 1, (S)—N-(2-(2-cyano-4,4-difluoropyrrolidin-1-yl)-2-oxoethyl)-6-phenylquinoline-4-carboxamide], for which the inhibition at 1 µM in assay [1] is over 50%. The IC50 in assay [2] is over 10 µM.
Take `COc1ccc(-c2ccc3nccc(C(=O)NCC(=O)N4CC(F)(F)C[C@H]4C#N)c3c2)cn1` [Compound 33]: in assay [1], the IC50 is under 1 µM and the inhibition at 1 µM was over 50%. Also, in assay [3], the half-maximal inhibitory concentration (IC50) was under 1 µM.
In the case of `N#C[C@@H]1CC(F)(F)CN1C(=O)CNC(=O)c1ccnc2ccc(-c3ccc4c(c3)CCNC4)cc12` [Compound 114], in assay [1], the inhibition at 1 µM is over 50%. Moreover, the half-inhibitory concentration (IC50) in assay [2] was over 10 µM.
In the case of `N#C[C@@H]1CC(F)(F)CN1C(=O)CNC(=O)c1ccnc2ccc(/C=C/c3ccncc3)cc12` [Compound 19, (S,E)-N-(2-(2-cyano-4,4-difluoropyrrolidin-1-yl)-2-oxoethyl)-6-(2-(pyridin-4-yl)vinyl)quinoline-4-carboxamide], the concentration for half-maximal inhibition (IC50) was 1 to 10 µM in assay [2], under 1 µM in assay [3] and under 3 µM in assay [4].
On to `N#C[C@@H]1CC(F)(F)CN1C(=O)CNC(=O)c1ccnc2ccc(-c3ccc4c(c3)OCCO4)cc12` [Compound 24], for which, in assay [1], the IC50 was under 1 µM and the inhibition at 1 µM was over 50%. Moreover, in assay [3], the IC50 was under 1 µM.
Take `CN1CCc2cc(-c3ccc4nccc(C(=O)NCC(=O)N5CC(F)(F)C[C@H]5C#N)c4c3)ccc2C1=O` [Compound 111]: the IC50 in assay [1] is under 1 µM; in assay [2], 1 to 10 µM; in assay [3], under 1 µM. Also, the inhibition at 1 µM in assay [1] was over 50%.
Consider `N#C[C@@H]1CC(F)(F)CN1C(=O)CNC(=O)c1ccnc2ccc(/C=C/c3cccnc3)cc12` [Compound 20], for which the values for the half-inhibitory concentration (IC50) in assay [2], in assay [3] and in assay [4] were over 10 µM, under 1 µM and 3 to 10 µM, respectively.
In the case of `CC(=O)Nc1ccccc1-c1ccc2nccc(C(=O)NCC(=O)N3CC(F)(F)C[C@H]3C#N)c2c1` [Compound 99], in assay [1], the inhibition at 1 µM is over 50%. Also, the half-maximal inhibitory concentration (IC50) in assay [2] is over 10 µM.
For the compound `C[C@H](NC(=O)c1ccnc2ccc(-c3ccc(Cl)cc3)cc12)C(=O)N1CC(F)(F)C[C@H]1C#N` [Compound 27], the inhibition at 1 µM in assay [1] is under 25%. The IC50 in assay [2] was over 10 µM; in assay [3] it was under 1 µM.
Regarding `CC(C)Oc1ccc(-c2ccc3nccc(C(=O)NCC(=O)N4CC(F)(F)C[C@H]4C#N)c3c2)cn1` [Compound 34], in assay [1], the IC50 is under 1 µM and the inhibition at 1 µM was over 50%. Moreover, the IC50 in assay [3] is under 1 µM.
Consider `N#C[C@@H]1CC(F)(F)CN1C(=O)CNC(=O)c1ccnc2ccc(/C=C/c3ccc4[nH]ncc4c3)cc12` [Compound 112], for which the IC50 in assay [1], in assay [2] and in assay [3] was under 1 µM throughout. In addition, in assay [1], the inhibition at 1 µM is over 50%.
Turning to `N#C[C@@H]1CC(F)(F)CN1C(=O)CNC(=O)c1ccnc2ccc(/C=C/c3ccc4ncccc4c3)cc12` [Compound 105], in assay [1], the inhibition at 1 µM is over 50%.
For `CN(C)c1ccc2cc(-c3ccc4nccc(C(=O)NCC(=O)N5CC(F)(F)C[C@H]5C#N)c4c3)ccc2c1` [Compound 15, (S)—N-(2-(2-cyano-4,4-difluoropyrrolidin-1-yl)-2-oxoethyl)-6-(6-(dimethylamino)naphthalen-2-yl)quinoline-4-carboxamide], the figures for the IC50 in assay [2] and in assay [3] were over 10 µM and under 1 µM, respectively.
In the case of `COCCOc1ccc(-c2ccc3nccc(C(=O)NCC(=O)N4CC(F)(F)C[C@H]4C#N)c3c2)cc1` [Compound 35], the 50% inhibitory concentration (IC50) in assay [1] and in assay [3] was under 1 µM in each case. Moreover, the inhibition at 1 µM in assay [1] was over 50%.
For the compound `N#C[C@@H]1CC(F)(F)CN1C(=O)CNC(=O)c1ccnc2ccc(/C=C/c3ccc4c(c3)CCC(=O)N4)cc12` [Compound 37], the half-inhibitory concentration (IC50) in assay [1] and in assay [3] was under 1 µM in each case. For the same compound, the inhibition at 1 µM in assay [1] was over 50%.
Turning to `N#C[C@@H]1CC(F)(F)CN1C(=O)CNC(=O)c1ccnc2ccc(-c3ccc4c(c3)CNC4=O)cc12` [Compound 104], the IC50 in assay [2] and in assay [3] was under 1 µM in each case.
`CNC(=O)c1ccc(-c2ccc3nccc(C(=O)NCC(=O)N4CC(F)(F)C[C@H]4C#N)c3c2)cc1` [Compound 100]: the 50% inhibitory concentration (IC50) in assay [2] was over 10 µM; in assay [3], under 1 µM.
On to `N#C[C@@H]1CC(F)(F)CN1C(=O)CNC(=O)c1ccnc2ccc(-c3ccc4c(c3)CC(=O)N4)cc12` [Compound 106], for which, in assay [1], the IC50 was under 1 µM and the inhibition at 1 µM is over 50%. Also, the IC50 in assay [3] is under 1 µM.
`N#C[C@@H]1CC(F)(F)CN1C(=O)CNC(=O)c1ccnc2ccc(-c3ccc4c(c3)CCN4)cc12` [Compound 12, (S)—N-(2-(2-cyano-4,4-difluoropyrrolidin-1-yl)-2-oxoethyl)-6-(indolin-5-yl)quinoline-4-carboxamide]: the IC50 in assay [2] was over 10 µM; in assay [3] it was under 1 µM.
Consider `C[C@@H](NC(=O)c1ccnc2ccc(-c3ccc(Cl)cc3)cc12)C(=O)N1CC(F)(F)C[C@H]1C#N` [Compound 26], for which the inhibition at 1 µM in assay [1] lay in the range of 25 to 50%. Further, the IC50 in assay [2] was over 10 µM; in assay [3], under 1 µM.
On to `COC(=O)/C=C/c1ccc2nccc(C(=O)NCC(=O)N3CC(F)(F)C[C@H]3C#N)c2c1` [Compound 22], for which the concentration for half-maximal inhibition (IC50) in assay [2] is over 10 µM; in assay [3] it was under 1 µM.
For the compound `CN1CCN(Cc2ccc(-c3ccc4nccc(C(=O)NCC(=O)N5CC(F)(F)C[C@H]5C#N)c4c3)cc2)CC1` [Compound 32], the inhibition at 1 µM in assay [1] is over 50%. Moreover, the concentration for half-maximal inhibition (IC50) in assay [2] was over 10 µM.
Regarding `N#C[C@@H]1CC(F)(F)CN1C(=O)CNC(=O)c1ccnc2ccc(-c3ccc4c(c3)C(=O)NCC4)cc12` [Compound 107], the concentration for half-maximal inhibition (IC50) in assay [1] was under 1 µM; in assay [2] it was 1 to 10 µM; in assay [3] it was under 1 µM. Moreover, the inhibition at 1 µM in assay [1] was over 50%.
With `Cc1noc(C)c1-c1ccc2nccc(C(=O)NCC(=O)N3CC(F)(F)C[C@H]3C#N)c2c1` [Compound 4, (S)—N-(2-(2-cyano-4,4-difluoropyrrolidin-1-yl)-2-oxoethyl)-6-(3,5-dimethylisoxazol-4-yl)quinoline-4-carboxamide], in assay [1], the inhibition at 1 µM was over 50%. Further, in assay [2], the IC50 is over 10 µM.
As for `N#C[C@@H]1CC(F)(F)CN1C(=O)CNC(=O)c1ccnc2ccc(-c3cccnc3)cc12` [Compound 5, (S)—N-(2-(2-cyano-4,4-difluoropyrrolidin-1-yl)-2-oxoethyl)-6-(pyridin-3-yl)quinoline-4-carboxamide], the values for the IC50 in assay [2] and in assay [3] were over 10 µM and under 1 µM, respectively.
With `N#C[C@@H]1CC(F)(F)CN1C(=O)CNC(=O)c1ccnc2ccc(-c3c[nH]c4ccccc34)cc12` [Compound 103], the half-inhibitory concentration (IC50) in assay [1] and in assay [3] was under 1 µM each time. In addition, the inhibition at 1 µM in assay [1] is over 50%.
As for `CNC(=O)c1cccc(-c2ccc3nccc(C(=O)NCC(=O)N4CC(F)(F)C[C@H]4C#N)c3c2)c1` [Compound 102], the IC50 was over 10 µM in assay [2] and under 1 µM in assay [3].
Take `CC(=O)Nc1cccc(-c2ccc3nccc(C(=O)NCC(=O)N4CC(F)(F)C[C@H]4C#N)c3c2)c1` [Compound 98]: the IC50 in assay [2] is over 10 µM; in assay [3], under 1 µM.
Taken in the same sequence, the figures for `N#C[C@@H]1CC(F)(F)CN1C(=O)CNC(=O)c1ccnc2ccc(/C=C/c3ccccn3)cc12` [Compound 21] were over 10 µM and under 1 µM.
For `N#C[C@@H]1CC(F)(F)CN1C(=O)CNC(=O)c1ccnc2ccc(-c3cccc4c3CCNC4=O)cc12` [Compound 109] the same measures were over 10 µM and under 1 µM.
As for `CC(C)C/C=C/c1ccc2nccc(C(=O)NCC(=O)N3CC(F)(F)C[C@H]3C#N)c2c1` [Compound 13, (S,E)-N-(2-(2-cyano-4,4-difluoropyrrolidin-1-yl)-2-oxoethyl)-6-(4-methylpent-1-en-1-yl)quinoline-4-carboxamide], the IC50 in assay [2] was over 10 µM; in assay [3], under 1 µM.
On to `N#C[C@@H]1CC(F)(F)CN1C(=O)CNC(=O)c1ccnc2ccc(-c3ccc(C4CC4)nc3)cc12` [Compound 25], for which, in assay [1], the IC50 is under 1 µM and the inhibition at 1 µM was over 50%. Besides, the IC50 in assay [3] is under 1 µM.
For the compound `N#C[C@@H]1CC(F)(F)CN1C(=O)CNC(=O)c1ccnc2ccc(-c3ccc(=O)[nH]c3)cc12` [Compound 17, (S)—N-(2-(2-cyano-4,4-difluoropyrrolidin-1-yl)-2-oxoethyl)-6-(6-oxo-1,6-dihydropyridin-3-yl)quinoline-4-carboxamide], the results for the IC50 in assay [2] and in assay [3] were over 10 µM and under 1 µM, respectively.
Take `N#C[C@@H]1CC(F)(F)CN1C(=O)CNC(=O)c1ccnc2ccc(/C=C/c3ccc4c(c3)CCN4)cc12` [Compound 115]: the IC50 in assay [2] was over 10 µM; in assay [3] it was under 1 µM.

Values taken from US11504364B2, “Inhibitors of fibroblast activation protein” (Praxis Biotech LLC, priority 2018, dated 2022).
